ChEMBL document CHEMBL1153557, “Effect of calcineurin inhibitors on posaconazole blood levels as measured by the MVista microbiological assay” (Antimicrob Agents Chemother, 2008)
Calls of active or inactive are those of the source. The rule behind the calls is not given here.

Assays:
[1] = species: Homo sapiens; assay: Effect on […] level in plasma of transplant patient by MVista microbiological assay; type: functional
[2] = system: Kluyveromyces marxianus; assay: Antifungal activity against Candida kefyr ATCC 46764 at 1.5 ug/ml after 14 to 18 hrs; type: functional; conditions: read-out: IZ
[3] = system: Kluyveromyces marxianus; assay: Antifungal activity against Candida kefyr ATCC 46764 at 3 ug/ml after 14 to 18 hrs; type: functional; conditions: read-out: IZ
[4] = system: Kluyveromyces marxianus; assay: Antifungal activity against Candida kefyr ATCC 46764 at 0.5 ug/ml after 14 to 18 hrs; type: functional; conditions: read-out: IZ
[5] = system: Kluyveromyces marxianus; assay: Antifungal activity against Candida kefyr ATCC 46764 after 14 to 18 hrs; type: functional, organism-based

Compound	Activity [1]	zone of inhibition at 1.5 µg/mL [2]	zone of inhibition at 3 µg/mL [3]	zone of inhibition at 0.5 µg/mL [4]	Activity [5]
CO[C@H]1C[C@@H]2CC[C@@H](C)[C@@](O)(O2)C(=O)C(=O)N2CCCC[C@H]2C(=O)O[C@H]([C@H](C)C[C@@H]2CC[C@@H](O)[C@H](OC)C2)CC(=O)[C@H](C)/C=C(\C)[C@@H](O)[C@@H](OC)C(=O)[C@H](C)C[C@H](C)/C=C/C=C/C=C/1C [SIROLIMUS]	7.1 ng/mL	–	–	–	–
CC[C@@H]([C@H](C)O)n1ncn(-c2ccc(N3CCN(c4ccc(OC[C@@H]5CO[C@@](Cn6cncn6)(c6ccc(F)cc6F)C5)cc4)CC3)cc2)c1=O [POSACONAZOLE]	–	20.6 mm	23.2 mm	16.5 mm	–
C=CC[C@@H]1/C=C(\C)C[C@H](C)C[C@H](OC)[C@H]2O[C@@](O)(C(=O)C(=O)N3CCCC[C@H]3C(=O)O[C@H](/C(C)=C/[C@@H]3CC[C@@H](O)[C@H](OC)C3)[C@H](C)[C@@H](O)CC1=O)[C@H](C)C[C@@H]2OC [TACROLIMUS ANHYDROUS]	4.2 ng/mL	–	–	–	inactive
C/C=C/C[C@@H](C)[C@@H](O)[C@H]1C(=O)N[C@@H](CC)C(=O)N(C)CC(=O)N(C)[C@@H](CC(C)C)C(=O)N[C@@H](C(C)C)C(=O)N(C)[C@@H](CC(C)C)C(=O)N[C@@H](C)C(=O)N[C@H](C)C(=O)N(C)[C@@H](CC(C)C)C(=O)N(C)[C@@H](CC(C)C)C(=O)N(C)[C@@H](C(C)C)C(=O)N1C [CYCLOSPORINE]	–	20.5 mm	23.3 mm	15.5 mm	–
